Consider seven compounds from the supplement of paper PMC4862054.

Each structure is given as a SMILES string.

What all share (test): drug sensitivity score (DSS), CellTiter-Glo (DSS (AUC-based score)); higher = stronger drug effect (viability inhibition or cytotoxicity); extreme values may be limits of the assay
Common to all, as to conditions: incubation time: 72 h
In general terms: Cellular ATP, detected with luciferase, serves as a proxy for viable cell number.

One experiment deals with HCC1937. The method, boiled down:
(§1)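 Breast cancer cell lines were seeded in 20 µl suspension into 384-well plates already holding compound and incubated for 72 h. Each compound was tested at 5 concentrations in 10-fold steps across its own 10,000-fold range. Plates were normalised to 0.1 % DMSO and a positive kill control after CellTox Green and then CellTiter-Glo readings. The area under the fitted dose-response curve served as the basis for the drug sensitivity score.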

In a further experiment the test system is HCC1143. A digest of the protocol:
as §1

In a further experiment the test system is HDQ-P1. A digest of the protocol: as §1
For the next experiment, the system named is HCC1599. A digest of the protocol: as §1
For a further experiment, the system named is BT-549. The method, boiled down: as §1
The test system of a further experiment is DU-4475. The method, boiled down:
as §1

In a further experiment the test system is MCF-10A. A digest of the protocol:
as §1

The next experiment has as its system MDA-MB-231. A digest of the protocol:
as §1

For the next experiment, the system named is Hs578T. The method, boiled down:
as §1

A further experiment concerns CAL-120. The method, boiled down: as §1
Another experiment deals with MDA-MB-436. The method, boiled down: as §1
The test system of a further experiment is MDA-MB-453. The method, boiled down: as §1
A further experiment concerns CAL-85-1. The method, boiled down:
as §1

The next experiment has as its system CAL-51. The method, boiled down:
as §1

The next experiment deals with MFM-223. A digest of the protocol: as §1
For the next experiment, the system named is SK-BR-3. A digest of the protocol:
as §1

The subject of the next experiment is BT-474. A digest of the protocol: as §1
Another experiment concerns MDA-MB-468. A digest of the protocol: as §1

Turning to `CC1(C)CCC(c2ccc(Cl)cc2)=C(CN2CCN(c3ccc(C(=O)NS(=O)(=O)c4ccc(N[C@H](CCN5CCOCC5)CSc5ccccc5)c(S(=O)(=O)C(F)(F)F)c4)cc3)CC2)C1` [Navitoclax], the drug sensitivity score in the experiment with HCC1937 came to 3.57; with HCC1143, 0; with HDQ-P1, 4.94; in the experiment with HCC1599, 0; in the experiment on BT-549, 0.252; with DU-4475, 1.89. In addition, the drug sensitivity score in the experiment with MCF-10A is 0; in the experiment on MDA-MB-231, 11.1; in the experiment on Hs578T, 0; in the experiment with CAL-120, 7.04; in the experiment on MDA-MB-436, 0; in the experiment on MDA-MB-453 it was 3.71. In addition, the drug sensitivity score was determined as 0.831 with CAL-85-1; 2.18 with CAL-51; 2.94 in the experiment with MFM-223; 0 in the experiment with SK-BR-3; 9.19 with BT-474; 4.81 in the experiment with MDA-MB-468.

As to `Cc1cn(-c2cc(NC(=O)c3ccc(C)c(Nc4nccc(-c5cccnc5)n4)c3)cc(C(F)(F)F)c2)cn1` [Nilotinib], the drug sensitivity score with HCC1937 stood at 0; in the experiment on HCC1143, 0; in the experiment on HDQ-P1, 0; in the experiment with HCC1599, 0; with BT-549, 1.04; in the experiment on DU-4475, 0. Besides, the drug sensitivity score in the experiment with MCF-10A, in the experiment on MDA-MB-231, with Hs578T, in the experiment with CAL-120, in the experiment on MDA-MB-436 and in the experiment on MDA-MB-453 was 0 each time. For the same compound, the drug sensitivity score is 0 in the experiment on CAL-85-1; 6.22 in the experiment on CAL-51; 0 in the experiment on MFM-223; 0 in the experiment with SK-BR-3; 0 with BT-474; 0 with MDA-MB-468.

For `CC[C@H](CO)Nc1nc(NCc2ccccc2)c2ncn(C(C)C)c2n1` [Seliciclib], the drug sensitivity score with HCC1937 amounted to 0; with HCC1143 it was 0; with HDQ-P1, 0; with HCC1599, 0; in the experiment with BT-549, 1.15; in the experiment with DU-4475 it was 0. Also, the drug sensitivity score in the experiment with MCF-10A, with MDA-MB-231, in the experiment with Hs578T, with CAL-120, in the experiment with MDA-MB-436 and in the experiment on MDA-MB-453 was 0 throughout. The drug sensitivity score with CAL-85-1 came out at 0; in the experiment with CAL-51 it was 2.74; in the experiment with MFM-223 it was 0; with SK-BR-3, 0; with BT-474, 0.844; with MDA-MB-468, 0.

Turning to `C=CCN(/C=C1/C(=O)O[C@H](COC)[C@@]2(C)C1=C(O)C(=O)C1=C2[C@H](OC(C)=O)C[C@]2(C)C(=O)CC[C@@H]12)CC=C` [Sonolisib], the drug sensitivity score was 0 in the experiment with HCC1937; 0 in the experiment with HCC1143; 0 in the experiment on HDQ-P1; 0 in the experiment on HCC1599; 0.766 in the experiment with BT-549; 0 in the experiment on DU-4475. In addition, the drug sensitivity score in the experiment on MCF-10A, in the experiment on MDA-MB-231, in the experiment with Hs578T, in the experiment on CAL-120, with MDA-MB-436 and in the experiment on MDA-MB-453 was 0 in each case. The drug sensitivity score with CAL-85-1 is 0; in the experiment on CAL-51 it was 4.2; in the experiment with MFM-223 it was 0; in the experiment on SK-BR-3 it was 0; with BT-474, 0; with MDA-MB-468 it was 0.

With `O=[N+]([O-])c1ccc2c(c1)S(=O)(=O)C=C2` [Stattic], the drug sensitivity score is 15.3 in the experiment with HCC1937; 6.56 with HCC1143; 6.75 with HDQ-P1; 7.71 with HCC1599; 20.4 in the experiment with BT-549; 5.46 in the experiment with DU-4475. Also, the drug sensitivity score in the experiment with MCF-10A came out at 5.13; in the experiment with MDA-MB-231, 14.4; in the experiment on Hs578T, 14; in the experiment on CAL-120 it was 7.49; in the experiment on MDA-MB-436 it was 9.28; in the experiment with MDA-MB-453 it was 12.6. Further, the drug sensitivity score with CAL-85-1 is 17.8; with CAL-51 it was 18.1; in the experiment with MFM-223 it was 14.8; in the experiment on SK-BR-3, 8.62; in the experiment with BT-474, 9.26; in the experiment on MDA-MB-468, 24.4.

Take `CC(C)n1cnc2c(NCCc3ccc(O)cc3)nc(-c3csc4ccccc34)nc21` [StemRegenin 1]: the drug sensitivity score came to 1.53 in the experiment with HCC1937; 0 with HCC1143; 1.2 in the experiment with HDQ-P1; 0 in the experiment on HCC1599; 3.44 with BT-549; 0 in the experiment with DU-4475. The drug sensitivity score in the experiment on MCF-10A turned out to be 0; in the experiment on MDA-MB-231, 0; in the experiment with Hs578T it was 0; in the experiment on CAL-120 it was 0; in the experiment on MDA-MB-436, 0.344; with MDA-MB-453, 0.255. Further, the drug sensitivity score in the experiment with CAL-85-1 amounted to 0; with CAL-51, 0; with MFM-223, 1.58; in the experiment on SK-BR-3, 0; in the experiment on BT-474, 0; in the experiment on MDA-MB-468, 0.986.

On to `O=C(CCCCCCC(=O)Nc1ccccc1)NO` [Vorinostat], for which the drug sensitivity score with HCC1937 was 3.4; in the experiment on HCC1143 it was 4.04; with HDQ-P1 it was 2.32; with HCC1599, 4.43; in the experiment on BT-549, 1.14; in the experiment on DU-4475, 5.43. For the same compound, the drug sensitivity score in the experiment on MCF-10A came out at 1.17; in the experiment with MDA-MB-231, 5.59; in the experiment on Hs578T, 2.53; in the experiment on CAL-120, 3.27; with MDA-MB-436, 0; in the experiment on MDA-MB-453 it was 10.6. Moreover, the drug sensitivity score with CAL-85-1 amounted to 4.06; in the experiment on CAL-51, 8.31; in the experiment on MFM-223, 3.32; in the experiment with SK-BR-3, 5.14; in the experiment with BT-474, 4.8; with MDA-MB-468, 8.49.
